pEC50: −log10 of the molar value.
Experiments:
[1] = molecular target: T1, hA1AR (Homo sapiens, UniProt P30542); conditions: percent inhibition of specific radioligand binding at 10 μM; ref [11]; cited from earlier work
T1 sequence (P30542 1-326): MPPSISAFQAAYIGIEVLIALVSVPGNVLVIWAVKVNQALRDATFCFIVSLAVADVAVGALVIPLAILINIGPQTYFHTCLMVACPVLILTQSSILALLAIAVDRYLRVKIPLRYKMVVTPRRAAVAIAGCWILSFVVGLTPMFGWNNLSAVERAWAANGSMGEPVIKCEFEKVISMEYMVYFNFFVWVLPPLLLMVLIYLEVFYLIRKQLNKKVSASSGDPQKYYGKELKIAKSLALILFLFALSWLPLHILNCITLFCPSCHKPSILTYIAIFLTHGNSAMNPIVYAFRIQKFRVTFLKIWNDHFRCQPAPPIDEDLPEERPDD

[2] = molecular target: T2, hA2AAR (Homo sapiens, UniProt P29274); conditions: percent inhibition of specific radioligand binding at 10 μM; ref [11]; cited from earlier work
[3] = molecular target: T2, hA2AAR; test: Radioligand binding assay at human A2A receptor; conditions: ratio of Ki values
[4] = molecular target: T2, hA2AAR; conditions: compared to the standard CGS21680; cited from earlier work
[5] = molecular target: T3, hA2BAR (Homo sapiens, UniProt P29275); conditions: read-out: EC50, cyclic AMP accumulation at hA2BAR; CHO cells; cited from earlier work
T3 sequence (P29275 1-332): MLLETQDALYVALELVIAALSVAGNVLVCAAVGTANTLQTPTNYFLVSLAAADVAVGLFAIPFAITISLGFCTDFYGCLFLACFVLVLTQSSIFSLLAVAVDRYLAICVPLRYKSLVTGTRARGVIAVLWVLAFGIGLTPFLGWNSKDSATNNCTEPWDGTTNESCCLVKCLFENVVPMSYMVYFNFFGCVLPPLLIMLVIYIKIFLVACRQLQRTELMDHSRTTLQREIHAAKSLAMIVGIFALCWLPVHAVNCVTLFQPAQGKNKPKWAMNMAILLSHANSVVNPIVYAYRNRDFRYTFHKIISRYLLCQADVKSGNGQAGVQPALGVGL

T2 sequence (P29274 whole entry): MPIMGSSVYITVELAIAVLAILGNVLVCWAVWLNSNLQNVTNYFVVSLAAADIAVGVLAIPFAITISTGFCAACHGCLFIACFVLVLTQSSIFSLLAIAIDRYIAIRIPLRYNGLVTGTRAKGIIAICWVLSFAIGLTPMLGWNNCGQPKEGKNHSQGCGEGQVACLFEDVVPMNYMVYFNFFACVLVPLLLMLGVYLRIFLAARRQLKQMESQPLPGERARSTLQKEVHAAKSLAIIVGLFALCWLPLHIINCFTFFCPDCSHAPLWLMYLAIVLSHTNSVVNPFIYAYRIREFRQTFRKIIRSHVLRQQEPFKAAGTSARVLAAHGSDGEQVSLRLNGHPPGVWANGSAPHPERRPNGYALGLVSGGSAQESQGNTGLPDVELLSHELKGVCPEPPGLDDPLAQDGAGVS

SMILES	Affinity (% inhibition) hA1 [1] [%]	Affinity (% inhibition) hA2A [2] [%]	decrease of hA2AAR binding affinity in comparison to 4g [3] [fold]	agonist efficacy at hA2AAR [4]	pEC50 [5]
CCCC/C=C/c1nc2c(N)ncnc2n1[C@@H]1SCC(O)C1O (stereo in doubt) [Compound 4r, (−)-(2R,3S,4R)-2-(6-Amino-8-(hex-1-enyl)-9H-purine-9-yl)-tetrahydrothiophene-3,4-diol]	3.7 ± 2.9	22.8 ± 6.4	–	–	–
CCCCC#Cc1nc2c(N)ncnc2n1[C@@H]1SCC(O)C1O (stereo in doubt) [Compound 4o, (−)-(2R,3S,4R)-2-(6-Amino-8-(hex-1-ynyl)-9H-purine-9-yl)-tetrahydrothiophene-3,4-diol]	49.3 ± 4.9	46.5 ± 4.3	–	–	–
CCCCC#Cc1nc(NCc2cccc(Cl)c2)c2ncn([C@@H]3SCC(O)C3O)c2n1 (stereo in doubt) [Compound 4i, (−)-(2R,3S,4R)-2-(6-(3-Chlorobenzylamino)-2-(hex-1-ynyl)-9H-purin-9-yl)tetrahydrothiophene-3,4-diol]	–	–	520	–	–
CCCC/C=C/c1nc(N)c2ncn([C@@H]3SC[C@@H](O)[C@H]3O)c2n1 [Compound 4m]	16.2 ± 8.4	–	–	–	–
CCCCC#Cc1nc(N)c2ncn([C@@H]3SCC(O)C3O)c2n1 (stereo in doubt) [Compound 4g, (−)-(2R,3S,4R)-2-(6-Amino-2-(hex-1-ynyl)-9H-purin-9-yl)tetrahydrothiophene-3,4-diol]	39 ± 10	–	–	full agonist	~5.00
